According to US20210077562A1, “ETBR ANTAGONIST COMPOUNDS, COMPOSITIONS, AND USES” (ENB Therapeutics, Inc., priority 2018, published 2021):

Tests used:
[1] = cited from earlier work
[2] = tested on: V600E+ (BRAF mutated) SM1 tumor; assay: SM1 tumor model, in vivo tumor growth curve over 21 days; parameters: species or system C57BL/6 mice
Text: In this study 6-8 week old female C57BL/6 mice were inoculated with SM1 tumor fragments (TME* components present).

## CCCC[C@@H](NC(=O)[C@@H](Cc1cn(C(=O)OC)c2ccccc12)NC(=O)[C@H](CC(C)(C)C)NC(=O)N1[C@H](C)CCC[C@@H]1C)C(=O)O [BQ788, (2R)-2-[[(2R)-2-[[(2S)-2-[[(2R,6S)-2,6-dimethylpiperidine-1-carbonyl]amino]-4,4-dimethylpentanoyl]amino]-3-(1-methoxycarbonylindol-3-yl)propanoyl]amino]hexanoic acid]
[1]
  degradation in plasma: rapidly degraded in plasma

## CC(C)(C)c1nc(-c2cccc(NS(=O)(=O)c3c(F)cccc3F)c2F)c(-c2ccnc(N)n2)s1 [dabrafenib]
[2]; dabrafenib 30 mg/kg daily by oral gavage + immune checkpoint inhibitors 10 mg/kg Q4D IP, 21 days
  tumor growth (FIG. 3), standard combination: failed to shrink tumors but demonstrated intermediate tumor growth inhibition
[2]; three-part combination therapy
  efficacy on addition to anti-PD1/ETBR antagonist combination: impairs efficacy
